Laboratory results taken from PubChem BioAssay AID624321 (Sanford-Burnham Center for Chemical Genomics, 2012).
Converted amounts (≈) assume the structure as drawn. The source made the active and inactive calls. No rule for the calls is given here.

Tested on: aqueous solubility in 1x PBS
Assay: aqueous solubility in phosphate-buffered saline, ADME assay, biophysical, set 2 (AID 624321)
Conditions: at 100 µM; stronger effect = higher value

| Structure (SMILES) | solubility |
| --- | --- |
| Cc1ccc(-n2c(N)c(C#N)c(-c3ccccc3)c(C#N)c2=O)cc1 | 0.83 µg/mL (inactive) (≈ 2.54 µM) |
| CN(C)c1nc(N)nc(CSc2nnnn2-c2cccc3ccccc23)n1 | 0.65 µg/mL (inactive) (≈ 1.71 µM) |
| CCCc1nc2c(=O)n(C)c(=O)nc-2n(C)n1 | > 23 µg/mL |
| Cc1ccc(C)c(OCCn2cc(C(=O)O)c3ccccc32)c1 | 25.1 µg/mL (≈ 81.1 µM) |
| COc1ccc(S(=O)(=O)n2nc(OC(=O)c3ccccc3)cc2N)cc1 | 1.1 µg/mL (inactive) (≈ 2.95 µM) |
| O=S(=O)(NC1CCCCC1N1CCOCC1)c1ccc(Cl)cc1 (centres undefined) | > 36 µg/mL |
| COc1cc(NC(=O)c2cc(C3CC3)on2)c(OC)cc1Cl | < 0.01 µg/mL (inactive) |
| CC(=O)c1ccc(N2CCN(S(=O)(=O)c3ccc4c(c3)CC(=O)N4)CC2)cc1 | 3 µg/mL (inactive) (≈ 7.51 µM) |
| N#Cc1ccccc1CSc1nc2ncc(Br)cc2[nH]1 | 0.42 µg/mL (inactive) (≈ 1.22 µM) |
| COc1ccc(C2c3c(ncn(CCN4CCOCC4)c3=N)Oc3ccc4ccccc4c32)cc1OC (centres undefined) | 35.4 µg/mL (≈ 71 µM) |
| O=c1oc2c(O)c(O)cc3c(=O)oc4c(O)c(O)cc1c4c23 | > 30 µg/mL |
| c1ccc(CC2CCN(c3ncnc4sccc34)CC2)cc1 | 0.03 µg/mL (inactive) (≈ 0.0969 µM) |
| O=C(COc1ccccc1Br)NCCc1nc2ccccc2[nH]1 | 29.4 µg/mL (≈ 78.6 µM) |
| NC(=O)C1CCN(c2nc(-c3ccc(Br)cc3)cs2)CC1 | 0.14 µg/mL (inactive) (≈ 0.382 µM) |
| COc1ccc(C2CC(c3ccccc3)=NN2c2ccc(S(N)(=O)=O)cc2)cc1 (centres undefined) | 0.02 µg/mL (inactive) (≈ 0.0491 µM) |
| O=C(COC(=O)C12CC3CC(CC(C3)C1)C2)NCc1ccco1 | < 0.01 µg/mL (inactive) |
| Brc1ccc2c(c1)CN1CCCC1=N2 | > 25 µg/mL |
| CSc1nc(-c2ccc(C)cc2)nc(C(Cl)Cl)n1 | 0.07 µg/mL (inactive) (≈ 0.233 µM) |
| COc1ccc(OC)c(S(=O)(=O)Nc2cnc3ccccc3c2)c1 | 25.6 µg/mL (≈ 74.3 µM) |
| O=C(O)c1ccccc1OCc1ccccc1Br | > 30 µg/mL |
| Cc1ccc(C(=O)n2c3ccccc3c3ccccc32)cc1 | 0.03 µg/mL (inactive) (≈ 0.105 µM) |
| Cn1nnnc1Sc1ncnc2scc(-c3ccccc3)c12 | 2.4 µg/mL (inactive) (≈ 7.35 µM) |
| CCOc1ccc(-c2nc(-c3ccncc3)no2)cc1OCC | 0.77 µg/mL (inactive) (≈ 2.47 µM) |

| Structure (SMILES) | solubility |
| --- | --- |
| c1ccc2c(Nc3nnc(-c4ccncc4)s3)cccc2c1 | 2.7 µg/mL (inactive) (≈ 8.87 µM) |
| O=S1(=O)Nc2c(ccc3cccnc23)-c2ccccc21 | > 28 µg/mL |
| Cc1ccc(S(=O)(=O)n2c(N)nc3ccccc32)cc1 | 1.8 µg/mL (inactive) (≈ 6.26 µM) |
| COc1ccc(OC)c(-c2nnc3n2N=C(c2ccc(OC)c(OC)c2)CS3)c1 | 26.8 µg/mL (≈ 65 µM) |
| CN(C)C1=C(Cl)C(=O)N(c2ccc(Cl)c(Cl)c2)C1=O | < 0.01 µg/mL (inactive) |
| CCCc1cc(C(=O)N(C2CCCCC2)C2CCCCC2)no1 | 1.5 µg/mL (inactive) (≈ 4.71 µM) |
| O=C1CCCC2=C1C1(CCCC1)N=C(Nc1nc3ccccc3o1)N2 | 0.13 µg/mL (inactive) (≈ 0.386 µM) |
| O=C(O)CCC(NS(=O)(=O)c1ccc(-c2ccccc2)cc1)C(=O)O (centres undefined) | > 36 µg/mL |
| CS(=O)(=O)c1ccc(C(=O)OCC(=O)NC23CC4CC(CC(C4)C2)C3)cc1[N+](=O)[O-] | 4.8 µg/mL (inactive) (≈ 11 µM) |
| O=C(CCNS(=O)(=O)c1cccc2nsnc12)N1CCN(c2ccccn2)CC1 | > 43 µg/mL |
| CCCN(CCC)CCNC(=O)C1CCN(Cc2nc(-c3ccc(Cl)cc3)oc2C)CC1 | > 46 µg/mL |
| Cc1ccc(N2CCN(S(=O)(=O)N3CCCCC3)CC2)c(C)c1 | 1.4 µg/mL (inactive) (≈ 4.15 µM) |
| CCc1nnc(NC(=O)c2ccc(NS(=O)(=O)c3ccccc3)cc2)s1 | 1.3 µg/mL (inactive) (≈ 3.35 µM) |
| CN1CSC(=S)N(C)C1 | > 16 µg/mL |
| Cc1ccc(C)c(NS(=O)(=O)c2cc(C(=O)Nc3ccccc3-c3ccccc3)ccc2Cl)c1 | 0.43 µg/mL (inactive) (≈ 0.876 µM) |
| CCc1oc2ccccc2c1C(=O)c1cc(Br)c(O)c(Br)c1 | > 42 µg/mL |
| COc1ccc(N(C(=O)CCl)C(C(=O)NCCc2ccccc2)c2cccs2)cc1Cl (centres undefined) | 0.51 µg/mL (inactive) (≈ 1.07 µM) |
| O=c1[nH]c2c(s1)C(c1cccnc1)C1C3CCC(C3)C1S2 (centres undefined) | > 31 µg/mL |
| Cc1ccc(NC(=O)CCC(=O)N/N=C/c2ccc([N+](=O)[O-])o2)cc1C | 0.43 µg/mL (inactive) (≈ 1.2 µM) |
| Cc1nc(SCc2nc3ccccc3[nH]2)c2oc3ccccc3c2n1 | 0.15 µg/mL (inactive) (≈ 0.433 µM) |
| COc1cccc(-c2nc(-c3ccc(NC(=O)Cc4ccccc4OC)cc3)no2)c1 | 0.04 µg/mL (inactive) (≈ 0.0963 µM) |
| COc1ccc(CNCc2cccc3ccccc23)cc1 | 29.6 µg/mL (≈ 107 µM) |
| CCN1CCN(c2nc3ccccc3nc2C(C#N)C(=O)OC2CCCCC2)CC1 (centres undefined) | 24.3 µg/mL (≈ 59.6 µM) |

| Structure (SMILES) | solubility |
| --- | --- |
| O=C1NCCCc2c1oc1ccc(O)cc21 | 16.8 µg/mL (≈ 77.3 µM) |
| COc1ccc(CSc2nc(C)cc(=O)[nH]2)cc1 | > 26 µg/mL |
| Cc1cc(C(=O)CN2C(=O)CCC2=O)c(C)n1Cc1ccccc1 | 17.8 µg/mL (≈ 54.9 µM) |
| Cc1ccc(S(=O)(=O)NCc2ccc(C(=O)NCCN(Cc3ccccc3)C(C)C)cc2)cc1 | 18.6 µg/mL (≈ 38.8 µM) |
| O=C(O)c1cccnc1SCCc1ccccc1 | > 26 µg/mL |
| O=C(O)c1ccc(N2C(=O)/C(=C/c3ccc(-c4ccc([N+](=O)[O-])cc4)o3)C=C2c2ccccc2)cc1 | 0.92 µg/mL (inactive) (≈ 1.92 µM) |
| O=C(CSc1cccc2cccnc12)N1CCCC1 | > 27 µg/mL |
| CCCOc1ccc(-c2nc(OC)c3ccccc3n2)cc1 | < 0.01 µg/mL (inactive) |
| COc1ccc(Sc2ccc(NC(=O)c3ccccc3Cl)cc2C#N)cc1 | < 0.01 µg/mL (inactive) |
| CCOc1ccc(NC(=S)N2CCC(C(O)(c3ccccc3)c3ccccc3)CC2)cc1 | 0.92 µg/mL (inactive) (≈ 2.06 µM) |
| Cc1cccc(-n2cnc3cc(C(=O)N4CCCCC4)ccc32)c1 | 26.3 µg/mL (≈ 82.3 µM) |
| c1ccc(-c2nnc(N3CCOCC3)nc2-c2ccccc2)cc1 | 2.1 µg/mL (inactive) (≈ 6.6 µM) |
| N#C/C(=C\c1ccc([N+](=O)[O-])o1)c1nc2ccccc2[nH]1 | 0.17 µg/mL (inactive) (≈ 0.607 µM) |
| C=CCn1c(SCC(=O)c2ccc(O)c(O)c2)nnc1-c1ccccc1OC | 26 µg/mL (≈ 65.4 µM) |
| Cc1cc(C)nc(-n2nc(C)c(Sc3ccc(F)cc3)c2N)n1 | 4.8 µg/mL (inactive) (≈ 14.6 µM) |
| O=C(c1ccccn1)N(Cc1cccs1)C1(C(=O)NC2CCCCC2)CCCCC1 | 7.3 µg/mL (inactive) (≈ 17.2 µM) |
| COc1nc(-c2ccccc2)nnc1-c1ccccc1 | 0.18 µg/mL (inactive) (≈ 0.684 µM) |
| Oc1cc(O)cc(/C=C/c2ccc(O)c(O)c2)c1 | 6.5 µg/mL (inactive) (≈ 26.6 µM) |
| O=[N+]([O-])c1ccc(CN2CCOCCOCCN(Cc3ccc([N+](=O)[O-])cc3)CCOCC2)cc1 | 21.7 µg/mL (≈ 44.4 µM) |
| CC(C)(C)OC(=O)NCCc1nnc(S(=O)(=O)Cc2ccc(Cl)cc2Cl)o1 | 5.8 µg/mL (inactive) (≈ 13.3 µM) |
| CCOC(=O)C(C)Oc1cccc2c(=O)n(CC(=O)Nc3ccc4c(c3)OCCO4)ccc12 (centres undefined) | 0.35 µg/mL (inactive) (≈ 0.774 µM) |
| CC[C@H]1CN2CCc3cc(OC)c(OC)cc3[C@@H]2C[C@@H]1C[C@H]1NCCc2cc(OC)c(OC)cc21 | > 55 µg/mL |
| Cc1ccc(NS(=O)(=O)c2ccc3c(c2)CCC(=O)N3)cc1C | 24.4 µg/mL (≈ 73.8 µM) |

| Structure (SMILES) | solubility |
| --- | --- |
| C/C=C/Cn1c(SCCCc2ccccc2)nc2c1c(=O)[nH]c(=O)n2C | 0.19 µg/mL (inactive) (≈ 0.513 µM) |
| COc1ccccc1N(/N=C1\Sc2ccccc2C1=O)C(C)=O | 3.7 µg/mL (inactive) (≈ 11.3 µM) |
| COC(=O)c1ccccc1NC(=O)c1ccc(F)cc1 | 0.94 µg/mL (inactive) (≈ 3.44 µM) |
| Cc1ccnc(NC(=O)CCCOc2cc(=O)n(C)c3ccccc23)c1 | 8.3 µg/mL (inactive) (≈ 23.6 µM) |
| Cc1ccc(S(=O)(=O)C(c2ccccc2)c2c(C)noc2C)cc1 (centres undefined) | 17.9 µg/mL (≈ 52.4 µM) |
| Cn1cnc([N+](=O)[O-])c1Sc1ncnc2nc[nH]c12 | > 27 µg/mL |
| Cc1ccccc1N1CCN(c2ncnc3c2cnn3Cc2ccc(Cl)cc2)CC1 | 0.01 µg/mL (inactive) (≈ 0.0239 µM) |
| O=c1[nH]c(SCc2ccc(Cl)cc2)nc2c1CCC2 | 0.62 µg/mL (inactive) (≈ 2.12 µM) |
| CN(C)c1oc(-c2ccc(OCc3ccc(Cl)cc3)cc2)nc1C#N | 0.03 µg/mL (inactive) (≈ 0.0848 µM) |
| COc1ccc(S(=O)(=O)N2CCN(S(=O)(=O)c3ccc4c(c3)OCCO4)CC2)cc1 | 0.26 µg/mL (inactive) (≈ 0.572 µM) |
| Cc1cc2c(s1)c1cnn(Cc3ccccc3F)c(=O)c1n2C | 0.08 µg/mL (inactive) (≈ 0.244 µM) |
| O=C1C2CC=CCC2C(=O)N1c1n[nH]c(-c2ccccc2)n1 (centres undefined) | > 29 µg/mL |
| CCCN1CNc2c(c(=O)[nH]c(=S)n2CCc2ccc(OC)c(OC)c2)C1 | > 39 µg/mL |
| Cc1cc(C)n(-c2nc(NCCCO)c3c4c(sc3n2)CCCC4)n1 | 17.1 µg/mL (≈ 47.8 µM) |
| CC1CCCN(C(C(=O)Nc2ccc3c(c2)OCCO3)c2ccccc2)C1 (centres undefined) | 5.2 µg/mL (inactive) (≈ 14.2 µM) |
| O=c1c2ccccc2[se]n1-c1ccccc1 | 7.2 µg/mL (inactive) (≈ 26.3 µM) |
| CCCC(=O)Nc1cccc(NC(=O)c2ccccc2Br)c1 | > 36 µg/mL |
| Cc1cc(-c2nnc3n2CCCCC3)c(C)n1-c1ccccc1 | > 30 µg/mL |
| CCCn1ncc(CN2CCCC(C(=O)c3cccc(OC(C)C)c3)C2)c1C (centres undefined) | 29.6 µg/mL (≈ 77.2 µM) |
| CC(C)C(=O)NC(c1ccco1)c1ccc2cccnc2c1O (centres undefined) | 3.3 µg/mL (inactive) (≈ 10.6 µM) |
